What was measured:
SW1573 HiBiT-KRASG12C = target: T1, SW1573 HiBiT-KRASG12C (Homo sapiens, UniProt P01116, G12C); assay: HiBiT degradation assay (G12C), SW1573 HiBiT-KRASG12C cells; format: cell-based; conditions: 24 hours treatment; for Dmax: maximum degradation observed;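 as to SW1573 HiBiT-KRASG12C DC50 (nM): Letter grades: C is 1000 to 3000 nM and D is above 3000 nM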
T1 construct: expressed in transfected cells
Method: Reagents. SW1573 (CRL-2170), AsPC-1 (CRL-1682), and SW620 (CCL-227) cells were purchased from ATCC. SW1573 cells are homozygous for the G12C mutation in KRAS, AsPC-1 cells are homozygous for the G12D mutation, and SW620 cells are homozygous for the G12V mutation. SW1573 cells were cultured in DMEM+F12+Glutamax (+Sodium Bicarbonate, +sodium pyruvate, ThermoFisher scientific, #10565) supplemented with 10% FBS (ThermoFisher scientific, #2060357) and 1% Antibiotic-Antimycotic (ThermoFisher scientific, #15240096). AsPC-1 cells were cultured in GIBCO RPMI-1640 (ThermoFisher scientific, catalog #61870-036 with Glutamax, No HEPES, No Na Pyruvate) supplemented with 10% FBS (ThermoFisher scientific, catalog #2060357) and 1× Penicillin-Streptomycin (ThermoFisher scientific, catalog #15140122, 10000 U/ml, 100×). SW620 cells were cultured in DMEM Glutamax (ThermoFisher scientific, catalog #10566016) supplemented with 10% FBS (ThermoFisher scientific, catalog #2060357) and 1× Penicillin-Streptomycin (ThermoFisher scientific, catalog #15140122, 10000 U/ml, 100×). For degradation assays, 384 well plates were used. Alamar blue was purchased from ThermoFisher scientific (A50101) and used according to manufacturer instructions. The Nano-Glo® HiBiT Lytic Detection System and Nano-Glo® HiBiT Blotting System were purchased from Promega (#N3050 and #N2410) and used according to manufacturer instructions.
HiBiT-tagged cell line generation. To create the SW1573 HiBiT-KRASG12C cell line, the nucleotide sequence encoding the 11 amino acid HiBiT tag from Promegal was appended to the N-terminus of the KRASG12C coding sequence. This synthesized DNA was cloned into a modified pcDNA3.1 vector under the control of the thymidine kinase (TK) promoter. This HiBiT-KRASG12C expressing plasmid was transfected into parental SW1573 cells and colonies were selected using 400 μg/mL zeocin. The resulting clonal lines were screened for expression of HiBiT-KRASG12C protein using Nano-Glo® HiBiT Blotting System. A luminescent band of the correct size for HiBiT-KRASG12C was detected in several clones. Clone E6 was selected for further studies.
HiBiT degradation assays (G12C and G12D). Either SW1573 HiBiT-KRasG12C or AsPC-1 HiBiT-KRasG12D cells were plated at 9000 or 15,000 cells/well in a 384 well plate (Corning #3770). Compounds of the present disclosure and positive controls were diluted in the appropriate cell media and applied to the plated cells resulting in a final concentration titration of 10 μM to 508 pM in 0.5% DMSO. Gambogic acid was used as a positive control for cytotoxicity and titrated from 10 μM to 78 nM. All assays were performed in triplicate. Cells were treated with compounds for 24 hours at 37° C. in an incubator containing 5% CO2. Following treatment, alamar blue was used to determine if any compounds led to a loss in cell viability after 24 hours. The 10× alamar blue reagent was added to a final concentration of 1× as recommended by the manufacturer and cells were returned to the incubator for 4 hours. Plates were then allowed to equilibrate to room temperature and fluorescence was measured using a Perkin-Elmer EnVision. After completion of the fluorescence read, the liquid from each well was removed and the cells were washed with PBS. The Nano-Glo® HiBiT detection reagent was prepared according to the manufacturer's instructions and added to each well after the PBS wash was removed. Following incubation at room temperature for 45 minutes, the luminescence was read using the ultra-sensitive luminescence aperture on the Envision instrument.
Data analysis. Fluorescence values from the alamar blue treatment were normalized to the DMSO-only control for each compound titration. […]

AsPC-1 HiBiT-KRASG12D = target: T2, AsPC-1 HiBiT-KRASG12D (Homo sapiens, UniProt P01116, G12D); assay: HiBiT degradation assay (G12D), AsPC-1 HiBiT-KRASG12D cells; format: cell-based; conditions: 24 hours treatment; for Dmax: ASPC1, AsPC-1 HiBiT-KRASG12D cells, maximum degradation observed; for DC50: AsPC-1 HiBiT-KRASG12D cells, HiBiT luminescence
T2 construct: insert the HiBiT tag onto the N-terminus of one or more of the endogenous KRAS alleles; endogenous in cells; host or cells: AsPC-1 (ATCC CRL-1682), CRISPR-Cas9 knock-in clone, one tagged allele
T2 sequence (P01116 1-188 isoform P01116-2 G12D): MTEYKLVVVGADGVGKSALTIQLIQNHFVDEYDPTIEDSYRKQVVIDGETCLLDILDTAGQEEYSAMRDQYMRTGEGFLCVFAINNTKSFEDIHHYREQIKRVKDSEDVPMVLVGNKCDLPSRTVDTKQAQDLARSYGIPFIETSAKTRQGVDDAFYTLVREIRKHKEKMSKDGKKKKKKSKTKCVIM
Procedure, shortened: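 AsPC-1 cells (homozygous G12D) carrying a CRISPR knock-in N-terminal HiBiT tag on endogenous KRAS were treated with compounds for 24 hours at 37° C, 5% CO2, in triplicate. Alamar blue viability was read first, then cells were washed and lysed with Nano-Glo HiBiT reagent for 45 minutes before luminescence reading.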

T1 sequence (P01116 1-188 isoform P01116-2 G12C): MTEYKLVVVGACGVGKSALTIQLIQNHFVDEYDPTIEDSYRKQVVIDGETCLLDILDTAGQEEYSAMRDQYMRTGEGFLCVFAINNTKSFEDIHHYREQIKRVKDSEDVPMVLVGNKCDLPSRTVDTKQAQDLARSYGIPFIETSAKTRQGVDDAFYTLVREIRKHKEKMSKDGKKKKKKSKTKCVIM

| SMILES | DC50 (SW1573 HiBiT-KRASG12C; HiBiT luminescence) | Dmax (AsPC-1 HiBiT-KRASG12D) | DC50 (AsPC-1 HiBiT-KRASG12D) | Dmax (SW1573 HiBiT-KRASG12C) | SW1573 HiBiT-KRASG12C DC50 (nM) (SW1573 HiBiT-KRASG12C; HiBiT luminescence) |
| --- | --- | --- | --- | --- | --- |
| CCc1cccc2cc(O)cc(-c3ncc4c(N5CC6CCC(C5)N6)nc(OCCN5CCC(CCOCC(=O)N[C@H](C(=O)N6C[C@H](O)C[C@H]6C(=O)N[C@@H](C)c6ccc(-c7scnc7C)cc6)C(C)(C)C)CC5)nc4c3F)c12 [Compound 13] | > 3 µM | 80 to 100% | 600 to 1000 nM | – | – |
| CCc1cccc2cc(O)cc(-c3ncc4c(N5CC6CCC(C5)N6)nc(OCCN5CCC6(CC5)CN(c5cc([C@@H](C(=O)N7C[C@H](O)C[C@H]7C(=O)N[C@@H](C)c7ccc(-c8scnc8C)cc7)C(C)C)on5)C6)nc4c3F)c12 [Compound 15, (2S,4R)-1-[(2S)-2-[3-[7-[2-[4-(3,8-diazabicyclo[3.2.1]octan-3-yl)-7-(8-ethyl-3-hydroxy-1-naphthyl)-8-fluoro-pyrido[4,3-d]pyrimidin-2-yl]oxyethyl]-2,7-diazaspiro[3.5]nonan-2-yl]isoxazol-5-yl]-3-methyl-butanoyl]-4-hydroxy-N-[(1S)-1-[4-(4-methylthiazol-5-yl)phenyl]ethyl]pyrrolidine-2-carboxamide] | > 3 µM | 20 to 60% | 1000 to 3000 nM | – | – |
| CCc1cccc2cc(O)cc(-c3ncc4c(N5CC6CCC(C5)N6)nc(OCCN5CCC6(CC5)CN(c5cc([C@H](C(=O)N7C[C@H](O)C[C@H]7C(=O)N[C@@H](C)c7ccc(-c8scnc8C)cc7)C(C)C)on5)C6)nc4c3F)c12 [Compound 16, (2S,4R)-1-[(2R)-2-[3-[7-[2-[4-(3,8-diazabicyclo[3.2.1]octan-3-yl)-7-(8-ethyl-3-hydroxy-1-naphthyl)-8-fluoro-pyrido[4,3-d]pyrimidin-2-yl]oxyethyl]-2,7-diazaspiro[3.5]nonan-2-yl]isoxazol-5-yl]-3-methyl-butanoyl]-4-hydroxy-N-[(1S)-1-[4-(4-methylthiazol-5-yl)phenyl]ethyl]pyrrolidine-2-carboxamide] | > 3 µM | 80 to 100% | < 600 nM | – | – |
| C#Cc1cccc2cc(O)cc(-c3ncc4c(N5CC6CCC(C6)C5)nc(OCCN5CCC(COCC(=O)N[C@H](C(=O)N6C[C@H](O)C[C@H]6C(=O)N[C@@H](C)c6ccc(-c7scnc7C)cc6)C(C)(C)C)CC5)nc4c3F)c12 [Compound 17, (2S,4R)-1-[(2S)-2-[[2-[[1-[2-[4-(3-azabicyclo[3.2.1]octan-3-yl)-7-(8-ethynyl-3-hydroxy-1-naphthyl)-8-fluoro-pyrido[4,3-d]pyrimidin-2-yl]oxyethyl]-4-piperidyl]methoxy]acetyl]amino]-3,3-dimethyl-butanoyl]-4-hydroxy-N-[(1S)-1-[4-(4-methylthiazol-5-yl)phenyl]ethyl]pyrrolidine-2-carboxamide] | 1 to 3 µM | – | > 3000 nM | 20 to 60% | – |
| C#Cc1cccc2cc(O)cc(-c3ncc4c(N5CC6CCC(C6)C5)nc(OCCN5CCC(COc6cc([C@H](C(=O)N7C[C@H](O)C[C@H]7C(=O)N[C@@H](C)c7ccc(-c8scnc8C)cc7)C(C)C)on6)CC5)nc4c3F)c12 [Compound 18, (2S,4R)-1-[(2R)-2-[3-[[1-[2-[4-(3-azabicyclo[3.2.1]octan-3-yl)-7-(8-ethynyl-3-hydroxy-1-naphthyl)-8-fluoro-pyrido[4,3-d]pyrimidin-2-yl]oxyethyl]-4-piperidyl]methoxy]isoxazol-5-yl]-3-methyl-butanoyl]-4-hydroxy-N-[(1S)-1-[4-(4-methylthiazol-5-yl)phenyl]ethyl]pyrrolidine-2-carboxamide] | > 3 µM | – | > 3000 nM | – | – |
| CCc1cccc2cc(O)cc(-c3ncc4c(N5CC6CCC(C6)C5)nc(OCCN5CCC(COCC(=O)N[C@H](C(=O)N6C[C@H](O)C[C@H]6C(=O)N[C@@H](C)c6ccc(-c7scnc7C)cc6)C(C)(C)C)CC5)nc4c3F)c12 [Compound 19, (2S,4R)-1-[(2S)-2-[[2-[[1-[2-[4-(3-azabicyclo[3.2.1]octan-3-yl)-7-(8-ethyl-3-hydroxy-1-naphthyl)-8-fluoro-pyrido[4,3-d]pyrimidin-2-yl]oxyethyl]-4-piperidyl]methoxy]acetyl]amino]-3,3-dimethyl-butanoyl]-4-hydroxy-N-[(1S)-1-[4-(4-methylthiazol-5-yl)phenyl]ethyl]pyrrolidine-2-carboxamide] | 1 to 3 µM | – | > 3000 nM | 20 to 60% | – |
| CCc1cccc2cc(O)cc(-c3ncc4c(N5CC6CCC(C5)N6)nc(OCCN5CCC(COc6cc([C@H](C(=O)N7C[C@H](O)C[C@H]7C(=O)N[C@@H](C)c7ccc(-c8scnc8C)cc7)C(C)C)on6)CC5)nc4c3F)c12 [Compound 20, (2S,4R)-1-[(2R)-2-[3-[[1-[2-[4-(3,8-diazabicyclo[3.2.1]octan-3-yl)-7-(8-ethyl-3-hydroxy-1-naphthyl)-8-fluoro-pyrido[4,3-d]pyrimidin-2-yl]oxyethyl]-4-piperidyl]methoxy]isoxazol-5-yl]-3-methyl-butanoyl]-4-hydroxy-N-[(1S)-1-[4-(4-methylthiazol-5-yl)phenyl]ethyl]pyrrolidine-2-carboxamide] | > 3 µM | 80 to 100% | < 600 nM | – | – |
| CCc1cccc2cc(O)cc(-c3ncc4c(N5CC6CCC(C5)N6)nc(OCCN5CCC(COCC(=O)N[C@H](C(=O)N6C[C@H](O)C[C@H]6C(=O)N[C@@H](C)c6ccc(-c7scnc7C)cc6)C(C)(C)C)CC5)nc4c3F)c12 [Compound 21, (2S,4R)-1-[(2S)-2-[[2-[[1-[2-[4-(3,8-diazabicyclo[3.2.1]octan-3-yl)-7-(8-ethyl-3-hydroxy-1-naphthyl)-8-fluoro-pyrido[4,3-d]pyrimidin-2-yl]oxyethyl]-4-piperidyl]methoxy]acetyl]amino]-3,3-dimethyl-butanoyl]-4-hydroxy-N-[(1S)-1-[4-(4-methylthiazol-5-yl)phenyl]ethyl]pyrrolidine-2-carboxamide] | > 3 µM | 80 to 100% | < 600 nM | – | – |
| Cc1ncsc1-c1ccc([C@H](C)NC(=O)[C@@H]2C[C@@H](O)CN2C(=O)[C@@H](c2cc(OCC3CCN(CCOc4nc(N5CC6CCC(C5)N6)c5cnc(-c6cc(O)cc7ccccc67)c(F)c5n4)CC3)no2)C(C)C)cc1 [Compound 22, (2S,4R)-1-[(2R)-2-[3-[[1-[2-[4-(3,8-diazabicyclo[3.2.1]octan-3-yl)-8-fluoro-7-(3-hydroxy-1-naphthyl)pyrido[4,3-d]pyrimidin-2-yl]oxyethyl]-4-piperidyl]methoxy]isoxazol-5-yl]-3-methyl-butanoyl]-4-hydroxy-N-[(1S)-1-[4-(4-methylthiazol-5-yl)phenyl]ethyl]pyrrolidine-2-carboxamide] | – | 20 to 60% | 600 to 1000 nM | – | C/D* |

— patent US20250206732A1, “COMPOUNDS AND METHODS FOR THE TARGETED DEGRADATION OF KRAS” (Arvinas Operations, Inc., priority 2022, published 2025)
